Patent publication US8609690B2, “Aryl- and heteroarylcarbonyl derivatives of substituted nortropanes, medicaments containing such compounds and their use” (Boehringer Ingelheim International GmbH, priority 2008, dated 2013)

Target: T1, 11β-HSD 1 (Homo sapiens, UniProt P28845)
T1 construct: detecting cortisol generated from cortisterone by human liver microsomes; from tissue; host or cells: human liver microsomes
Assay: In vitro inhibition of 11β-HSD 1, HTRF detection of cortisol generated by human liver microsomes
Format: biochemical
Details: 1 μM test compound, 100% indicates no inhibition, zero or below zero indicates complete inhibition (relative to carbenoxolone)
Procedure: Briefly, compounds were incubated for 1 hour at 37° C. in Tris buffer (20 mM tris, 5 mM EDTA, pH 6.0) containing NADPH (200 μM) and cortisone (80 nM). Cortisol generated in the reaction is then detected with a competitive immunoassay, involving two HTRF conjugates: cortisol linked to XL665 and anti-cortisol antibody labeled with Europium cryptate. The incubation period for detection reaction was typically 2 hours. The amount of cortisol is determined by reading the time-resolved fluorescence of the wells (Ex 320/75 nm; Em 615/8.5 nm and 665/7.5 nm). The ratio of the two emission signals is then calculated (Em665*10000/Em615). […] Each assay also contained a calibration curve with cortisol to transform the fluorescent data into cortisol concentrations. Percent inhibition of each compound was determined relative to the carbenoxolone signal. In Table 2 the 11β-HSD 1 inhibitory activities at 1 μM concentration of test compound, determined as described above, of the compounds listed in Table 3 are compiled, wherein 100% indicates no inhibition and a value of zero or below zero indicates complete inhibition.

T1 sequence (P28845 whole entry): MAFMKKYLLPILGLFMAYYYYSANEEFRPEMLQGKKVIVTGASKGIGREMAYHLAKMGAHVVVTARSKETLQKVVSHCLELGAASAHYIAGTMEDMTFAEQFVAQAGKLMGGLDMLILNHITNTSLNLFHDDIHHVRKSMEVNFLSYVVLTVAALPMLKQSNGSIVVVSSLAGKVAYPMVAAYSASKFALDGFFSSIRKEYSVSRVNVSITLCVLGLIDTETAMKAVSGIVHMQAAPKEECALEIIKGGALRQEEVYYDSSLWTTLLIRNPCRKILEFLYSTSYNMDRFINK

SMILES | Inhibitory activity on 11β-HSD 1, % CTL [% CTL] | Inhibitory activity on 11β-HSD 1, % CTL (1 µM) [% CTL]
Cn1c(=O)[nH]c2cc(C(=O)N3[C@@H]4CC[C@H]3C[C@@H](c3ccc(F)cc3)C4)ccc21 [Example 59, endo-5-[3-(4-Fluoro-phenyl)-8-aza-bicyclo[3.2.1]octane-8-carbonyl]-1-methyl-1,3-dihydro-benzoimidazol-2-one] | 95 | 
O=C1NCCN1c1cccc(C(=O)N2[C@@H]3CC[C@H]2C[C@@H](c2ccc(F)cc2)C3)c1 [Example 60, endo-1-{3-[3-(4-Fluoro-phenyl)-8-aza-bicyclo[3.2.1]octane-8-carbonyl]-phenyl}-imidazolidin-2-one] | 63 | 
COC(=O)c1cccc(C(=O)N2[C@@H]3CC[C@H]2C[C@@H](c2ccc(F)cc2)C3)c1 [Example 61, endo-3-[3-(4-Fluoro-phenyl)-8-aza-bicyclo[3.2.1]octane-8-carbonyl]-benzoic acid methyl ester] | 94 | 
O=C(c1ccc2cc[nH]c2c1)N1[C@@H]2CC[C@H]1C[C@@H](c1ccc(F)cc1)C2 [Example 62, endo-[3-(4-Fluoro-phenyl)-8-aza-bicyclo[3.2.1]oct-8-yl]-(1H-indol-6-yl)-methanone] | −47 | 
N#Cc1ccccc1C(=O)N1[C@@H]2CC[C@H]1C[C@@H](c1ccc(F)cc1)C2 [Example 63, endo-2-[3-(4-Fluoro-phenyl)-8-aza-bicyclo[3.2.1]octane-8-carbonyl]-benzonitrile] | 91 | 
CC(=O)Nc1cccc(C(=O)N2[C@@H]3CC[C@H]2C[C@@H](c2ccc(F)cc2)C3)c1 [Example 64, endo-N-{3-[3-(4-Fluoro-phenyl)-8-aza-bicyclo[3.2.1]octane-8-carbonyl]-phenyl}-acetamide] | 99 | 
O=C1CCCN1c1ccc(C(=O)N2[C@@H]3CC[C@H]2C[C@@H](c2ccc(F)cc2)C3)cc1 [Example 65, endo-1-{4-[3-(4-Fluoro-phenyl)-8-aza-bicyclo[3.2.1]octane-8-carbonyl]-phenyl}-pyrrolidin-2-one] | 33 | 
Cn1cnc2cc(C(=O)N3[C@@H]4CC[C@H]3C[C@@H](c3ccc(F)cc3)C4)ccc21 [Example 66, endo-[3-(4-Fluoro-phenyl)-8-aza-bicyclo[3.2.1]oct-8-yl]-(1-methyl-1H-benzoimidazol-5-yl)-methanone] | 77 | 
CS(=O)(=O)c1cccc(C(=O)N2[C@@H]3CC[C@H]2C[C@@H](c2ccc(F)cc2)C3)c1 [Example 67, Endo-[3-(4-Fluoro-phenyl)-8-aza-bicyclo[3.2.1]oct-8-yl]-(3-methanesulfonyl-phenyl)-methanone] | 85 | 
Cn1nnc2cc(C(=O)N3[C@@H]4CC[C@H]3C[C@@H](c3ccc(F)cc3)C4)ccc21 [Example 68, endo-[3-(4-Fluoro-phenyl)-8-aza-bicyclo[3.2.1]oct-8-yl]-(1-methyl-1H-benzotriazol-5-yl)-methanone] | 66 | 
Cc1nc2cc(C(=O)N3[C@@H]4CC[C@H]3C[C@@H](c3ccc(F)cc3)C4)ccc2c(=O)[nH]1 [Example 69, endo-7-[3-(4-Fluoro-phenyl)-8-aza-bicyclo[3.2.1]octane-8-carbonyl]-2-methyl-3H-quinazolin-4-one] | 93 | 
O=C(c1ccc2nccnc2c1)N1[C@@H]2CC[C@H]1C[C@@H](c1ccc(F)cc1)C2 [Example 70, endo-[3-(4-Fluoro-phenyl)-8-aza-bicyclo[3.2.1]oct-8-yl]-quinoxalin-6-yl-methanone] | 19 | 
CC(=O)NCc1ccc(C(=O)N2[C@@H]3CC[C@H]2C[C@@H](c2ccc(F)cc2)C3)cc1 [Example 71, endo-N-{4-[3-(4-Fluoro-phenyl)-8-aza-bicyclo[3.2.1]octane-8-carbonyl]-benzyl}-acetamide] | 41 | 
O=C(c1cccc2[nH]cnc12)N1[C@@H]2CC[C@H]1C[C@@H](c1ccc(F)cc1)C2 [Example 73, endo-(1H-Benzoimidazol-4-yl)-[3-(4-fluoro-phenyl)-8-aza-bicyclo[3.2.1]oct-8-yl]-methanone] | 90 | 
Cc1nc2ccc(C(=O)N3[C@@H]4CC[C@H]3C[C@@H](c3ccc(F)cc3)C4)cc2[nH]1 [Example 74, endo-[3-(4-Fluoro-phenyl)-8-aza-bicyclo[3.2.1]oct-8-yl]-(2-methyl-3H-benzoimidazol-5-yl)-methanone] | 69 | 
O=C1CCCN1c1cccc(C(=O)N2[C@@H]3CC[C@H]2C[C@@H](c2ccc(F)cc2)C3)c1 [Example 75, endo-1-{3-[3-(4-Fluoro-phenyl)-8-aza-bicyclo[3.2.1]octane-8-carbonyl]-phenyl}-pyrrolidin-2-one] | 92 | 

SMILES | Inhibitory activity on 11β-HSD 1, % CTL [% CTL] | Inhibitory activity on 11β-HSD 1, % CTL (1 µM) [% CTL]
O=C(c1ccc2c(c1)OC(F)(F)O2)N1[C@@H]2CC[C@H]1C[C@@H](c1ccc(F)cc1)C2 [Example 76, endo-(2,2-Difluoro-benzo[1,3]dioxol-5-yl)-[3-(4-fluoro-phenyl)-8-aza-bicyclo[3.2.1]oct-8-yl]-methanone] | 76 | 
O=C(c1ccc(F)c(F)c1)N1[C@@H]2CC[C@H]1C[C@@H](c1ccc(F)cc1)C2 [Example 77, endo-(3,4-Difluoro-phenyl)-[3-(4-fluoro-phenyl)-8-aza-bicyclo[3.2.1]oct-8-yl]methanone] | 47 | 
CN1C(=O)Cc2cc(C(=O)N3[C@@H]4CC[C@H]3C[C@@H](c3ccc(F)cc3)C4)ccc21 [Example 78] | 49 | 
CNC(=O)c1ccc(C(=O)N2[C@@H]3CC[C@H]2C[C@@H](c2ccc(F)cc2)C3)cc1 [Example 79, endo-4-[3-(4-Fluoro-phenyl)-8-aza-bicyclo[3.2.1]octane-8-carbonyl]N-methyl-benzamide] | 90 | 
NC(=O)c1ccc(C(=O)N2[C@@H]3CC[C@H]2C[C@@H](c2ccc(F)cc2)C3)cc1 [Example 81, endo-4-[3-(4-Fluoro-phenyl)-8-aza-bicyclo[3.2.1]octane-8-carbonyl]-benzamide] |  | −9
O=C(c1cccc(CO)c1)N1[C@@H]2CC[C@H]1C[C@@H](c1ccc(F)cc1)C2 [Example 82, endo-[3-(4-Fluoro-phenyl)-8-aza-bicyclo[3.2.1]oct-8-yl]-(3-hydroxymethyl-phenyl)-methanone] | 5 | 
CNc1cccc(C(=O)N2[C@@H]3CC[C@H]2C[C@@H](c2ccc(F)cc2)C3)c1 [Example 83, endo-[3-(4-Fluoro-phenyl)-8-aza-bicyclo[3.2.1]oct-8-yl]-(3-methylamino-phenyl)-methanone] | −30 | 
NC(=O)c1cccc(C(=O)N2[C@@H]3CC[C@H]2C[C@@H](c2ccc(F)cc2)C3)c1 [Example 84, endo-3-[3-(4-Fluoro-phenyl)-8-aza-bicyclo[3.2.1]octane-8-carbonyl]-benzamide] | 41 | 
O=C(c1ccc(-c2cnco2)cc1)N1[C@@H]2CC[C@H]1C[C@@H](c1ccc(F)cc1)C2 [Example 87, endo-[3-(4-Fluoro-phenyl)-8-aza-bicyclo[3.2.1]oct-8-yl]-(4-oxazol-5-yl-phenyl)-methanone] | −2 | 
Cc1nc(-c2cccc(C(=O)N3[C@@H]4CC[C@H]3C[C@@H](c3ccc(F)cc3)C4)c2)no1 [Example 88, endo-[3-(4-Fluoro-phenyl)-8-aza-bicyclo[3.2.1]oct-8-yl]-[3-(5-methyl-[1,2,4]oxadiazol-3-yl)-phenyl]-methanone] | 98 | 
O=C(c1cccc(-c2cc[nH]n2)c1)N1[C@@H]2CC[C@H]1C[C@@H](c1ccc(F)cc1)C2 [Example 90, endo-[3-(4-Fluoro-phenyl)-8-aza-bicyclo[3.2.1]oct-8-yl]-[3-(1H-pyrazol-3-yl)-phenyl]-methanone] | 42 | 
O=C(c1cccc(-c2cnco2)c1)N1[C@@H]2CC[C@H]1C[C@@H](c1ccc(F)cc1)C2 [Example 91, endo-[3-(4-Fluoro-phenyl)-8-aza-bicyclo[3.2.1]oct-8-yl]-(3-oxazol-5-yl-phenyl)-methanone] | 69 | 
O=C(c1ccc2scnc2c1)N1[C@@H]2CC[C@H]1C[C@@H](c1ccc(F)cc1)C2 [Example 93, endo-Benzothiazol-5-yl-[3-(4-fluoro-phenyl)-8-aza-bicyclo[3.2.1]oct-8-yl]-methanone] | 38 | 
O=C(c1ccc2ncsc2c1)N1[C@@H]2CC[C@H]1C[C@@H](c1ccc(F)cc1)C2 [Example 94, endo-Benzothiazol-6-yl-[3-(4-fluoro-phenyl)-8-aza-bicyclo[3.2.1]oct-8-yl]-methanone] | 12 | 
O=C1NCc2cccc(C(=O)N3[C@@H]4CC[C@H]3C[C@@H](c3ccc(F)cc3)C4)c21 [Example 95, endo-7-[3-(4-Fluoro-phenyl)-8-aza-bicyclo[3.2.1]octane-8-carbonyl]-2,3-dihydro-isoindol-1-one] | 92 | 
O=C(c1ccccc1)N1[C@@H]2CC[C@H]1C[C@@H](c1ccc(F)cc1)C2 [Example 96, endo-[3-(4-Fluoro-phenyl)-8-aza-bicyclo[3.2.1]oct-8-yl]-phenyl-methanone] | 33 | 
